Measured values as given in patent US20140243415A1, “COMPOUNDS INHIBITING GALECTIN-1 EXPRESSION, CANCER CELL PROLIFERATION, INVASION, AND TUMORIGENESIS” (ONCOETHIX SA, priority 2011, published 2014).

Tests used:
SQ20B xenografts = experiment: SQ20B xenograft model; type: in vivo
Experimental: FIG. 6. […] A—The antitumor effects of OTX-008 on A2780-1A9 xenograft were compared to that of active doses of cisplatin and paclitaxel—solid line represents days of treatment. B—Immunohistochemistry of galectin-1, Ki67 (MIB-1) and CD31 on A2780-1A9 xenograft. C—Tumor growth and secondary tumor formation of SQ20B xenografts untreated and treated with 10 mg/kg/day OTX-008 and SQ-shGAL1 xenografts. Tumor volume was determined as 3.14(width2)/length—solid line represents days of treatment. D—Immunohistochemistry of galectin-1, MIB1, VEGFR2 and CD31 on SQ20B xenografts
The immunohistochemical procedure was performed on OCT-embedded subcutaneous tumor stained with H&E, MIB1 ( 1/400, Dako, Glostrup, Denmark), CD31 ( 1/200, Dako), VEGFR2 ( 1/125, Cell Signaling, Saint Quentin Yvelines, France) or galectin-1 (1:20, Abcam, Cambridge, Mass., USA) using an automated immunohistochemical stainer according to the manufacturer's guidelines (streptavidin-peroxidase protocol; Benchmark, Ventana, Tuscon, Ariz., USA). The images were captured and analyzed with a Zeiss observer Z1 microscope. Images quantification was performed using Histolab Software (Microvision, France) subtracting the background. Magnification ×20 and ×40.
5.10^6 SQ20B or SQ20B-shGal1 cancer cells were injected s.c. into the right lateral flank of female nu/nu athymic mice. On day 5, mice were randomized; one group of SQ20B-mice was treated every other day with 10 mg/kg OTX-008 i.p. Tumor size was measured twice weekly with caliper and tumor volume was calculated as 3.14(width^2)/length. At the end of the study, mice were sacrificed, tumors were weighed and stored in OCT for molecular biology and immunohistochemical analysis. Secondary tumors were analyzed on liver, lung, intestine and skin in all mice. Mouse experiments complied with guidelines for Animal Housing and Experiment Board of the French authorities.

cdc2 (tyrosine 15) = experiment: Western blot of phosphorylated cdc2 in SQ20B; type: cell-based, human; conditions: 3 μM OTX-008 for 72 h
Experimental: (§1) Cells were lysed in buffer containing 50 mM HEPES (pH 7.6), 150 mM NaCl, 1% Triton X-100, 2 mM sodium vanadate, 100 mM NaF, and 0.4 mg/ml phenylmethylsulfonyl fluoride. Equal amounts of protein (30 μg/lane) were subjected to SDS-PAGE and transferred to nitrocellulose membranes. Membranes were blocked with 5% milk in 0.05% Tween 20/phosphate-buffered saline and then incubated with the primary antibody overnight. Membranes were then washed and incubated with the secondary antibody conjugated to horseradish peroxidase. Bands were visualized by using the enhanced chemiluminescence Western blotting detection system. Densitometric analysis was performed under conditions that yielded a linear response. The following antibodies were used: anti-p-cdc2 (tyr15), anti-p-wee1 (ser642), anti-p-p44/42 MAPK (thr202/tyr204), anti-p44/42, anti-p-AKT (ser473), anti-AKT, anti-p-S6 (ser235/236) (Cell Signaling, Saint Quentin Yvelines, France), anti-p-PKCα (ser657) (BD Biosciences, Le-Pont-de-Claix, France) and anti-galectin-1 (Abcam, Cambridge, Mass., USA). All antibodies were used at a 1:1000 dilution.
(§2) To study the mechanism of OTX-008-induced inhibition of cell proliferation, the effect of OTX-008 on cell cycle in SQ20B cells was examined (FIG. 5B). […] Activation of cdc2 (cdk1) by de-phosphorylation of tyrosine 15 is required for G2/M transition. […]

wee1 (serine 642) = experiment: Western blot of phosphorylated wee1 in SQ20B; type: cell-based, human; conditions: 3 μM OTX-008 for 72 h
Experimental: as §1, §2

[1] = 10 mg/kg OTX-008 i.p. every other day

`CN(C)CCNC(=O)COc1c2cccc1Cc1cccc(c1OCC(=O)NCCN(C)C)Cc1cccc(c1OCC(=O)NCCN(C)C)Cc1cccc(c1OCC(=O)NCCN(C)C)C2` [OTX-008] was tested, and the “mice developing subcutaneous metastasis” value (SQ20B xenografts; 10 mg/kg OTX-008, control group >80%) was 14%, the “toxicity of the dose” value (SQ20B xenografts; [1]) was “non-toxic dose” and the tumor growth (SQ20B xenografts; [1]) was “inhibited the growth of SQ20B xenografts”. For the same compound, the “cell proliferation (Ki67)” value (SQ20B xenografts; SQ20B xenograft) was “significant decrease”, the “galectin-1 expression in tumors” value (SQ20B xenografts; SQ20B xenograft) was “significant decrease” and the secondary tumor development (SQ20B xenografts; at mouse autopsies) was “significantly inhibited secondary tumor development”. For the same compound, the “number and diameter of micro-vessels” value (SQ20B xenografts; vs control) was “significantly reduced”, the “cdc2 activity (phosphorylation on tyrosine 15)” value (cdc2 (tyrosine 15)) was “inactivated cdc2” and the “wee1 phosphorylation on serine 642” value (wee1 (serine 642)) was “decreased inactivating phosphorylation of wee1”.
